# Results as given in patent publication US20020137929A1, “1 - (3-heterocyclylphenyl) isothiourea, -isourea, -guanidine and -amidine herbicidal agents” (Intellectual Property Department, BASF Aktiengesellschaft, priority 1998, published 2002).
# How the values were obtained:
# ABUTH (Velvetleaf) = assay: Postemergence herbicidal evaluation; type: in vivo, Abutilon theophrasti
# Experimental: (§1) In the tests, seedling plants are grown in jiffy flats for about two weeks. The test compounds are dispersed in 50/50 acetone/water mixtures containing 0.5% TWEEN®20, a polyoxyethylene sorbitan monolaurate surfactant of Atlas Chemical Industries, in sufficient quantities to provide the equivalent of about 0.0156 kg to 0.500 kg per hectare of active compound when applied to the plants through a spray nozzle operating at 40 psi for a predetermined time. After spraying, the plants are placed on greenhouse benches and are cared for in accordance with conventional greenhouse procedures. From four to five weeks after treatment, the seedling plants are examined and rated according to the rating system set forth below. Where more than one test is involved for a given compound, the data are averaged.
# (§2) Plant species employed in these evaluations are reported by header abbreviation, common name and scientific name.
# (§3) Results of herbicide evaluation are expressed on a rating scale (0-9). The scale is based upon a visual observation of plant stand, vigor, malformation, size, chlorosis and overall plant appearance as compared with a control.
# AMBEL (Ragweed, Common) = assay: Postemergence herbicidal evaluation; type: in vivo, Ambrosia artemisifolia
# Experimental: as §1, §2, §3
# CASOB (Sicklepod) = assay: Postemergence herbicidal evaluation; type: in vivo, Cassia obtusifolia
# Experimental: as §1, §2, §3
# [1] = tested on: CHEAL (Lambsquarters, Common); assay: Postemergence herbicidal evaluation; type: in vivo, Chenopodium album
# Experimental: as §1, §2, §3
# GALAP (Galium) = assay: Postemergence herbicidal evaluation; type: in vivo, Galium aparine
# Experimental: as §1, §2, §3
# [2] = tested on: IPOHE (Morningglory, Ivyleaf); assay: Postemergence herbicidal evaluation; type: in vivo, Ipomoea hederacea
# Experimental: as §1, §2, §3
# ECHCG (Barnyardgrass) = assay: Postemergence herbicidal evaluation; type: in vivo, Echinochloa crus-galli
# Experimental: as §1, §2, §3
# SETVI (Foxtail, Green) = assay: Postemergence herbicidal evaluation; type: in vivo, Setaria viridis
# Experimental: as §1, §2, §3
# [3] = tested on: GLXMAW (Soybean, Williams); assay: Postemergence herbicidal evaluation; type: in vivo, Glycine max, (L.) Merr. cv Williams
# Experimental: as §1, §2, §3
# ORYSAT (Rice, Tebonnet) = assay: Postemergence herbicidal evaluation; type: in vivo, Oryza sativa, (L.) Tebonnet
# Experimental: as §1, §2, §3
# [4] = tested on: TRZAWR (Wheat, Winter, cv Riband); assay: Postemergence herbicidal evaluation; type: in vivo, Triticum aestivum
# Experimental: as §1, §2, §3
# ZEAMX (Corn, Field) = assay: Postemergence herbicidal evaluation; type: in vivo, Zea mays
# Experimental: as §1, §2, §3
# [5] = tested on: ECHORC (Watergrass (Calif.)); assay: Preemergence weed control under flooded paddy conditions; type: in vivo, Echinochloa oryzoides; settings: rated 3-4 weeks after treatment
# Experimental: as §3
# (§4) Preemergence herbicidal activity under flooded paddy conditions is determined as follows: plant seeds or propagating organs are planted in the top 0.5 cm of silt loam soil in 32 oz. plastic containers with a diameter of 10.5 cm and no drainage holes. Water is added to these containers and maintained at 1.5 to 3 cm above the soil surface for the duration of the experiment. The test compounds are applied as aqueous/acetone mixtures 50/50 v/v pipetted directly into the flood water to give the equivalent of about 0.0313 to 0.500 kg/ha of active ingredient. The treated containers are placed on greenhouse benches and cared for in accordance with conventional greenhouse procedures. Three to four weeks after treatment, the test is terminated and each container is examined and herbicidal effect rated according to the rating system provided in Example 37. The compounds evaluated are reported by compound number given in Example 37.
# (§5) Plant species employed in this example are reported by header abbreviation, common name and scientific name.
# CYPIR (Rice Flatsedge) [6] = assay: as above; type: in vivo, Cyperus iria; settings: rated 3-4 weeks after treatment
# Experimental: as §3, §4, §5
# CYPSE (Flatsedge) [7] = assay: as above; type: in vivo, Cyperus serotinus; settings: rated 3-4 weeks after treatment
# Experimental: as §3, §4, §5
# MOOVA (Monochoria) [8] = assay: as above; type: in vivo, Monochoria vaginalis; settings: rated 3-4 weeks after treatment
# Experimental: as §3, §4, §5
# [9] = tested on: SAGPY (Arrowhead (Pygmaea)); assay: as above; type: in vivo, Sagittaria pygmaea; settings: rated 3-4 weeks after treatment
# Experimental: as §3, §4, §5
# [10] = tested on: ECHORC (Watergrass (Calif.)); assay: Postemergence weed control under flooded paddy conditions; type: in vivo, Echinochloa oryzoides; settings: postemergence weeds, 3-4 weeks after treatment
# Text: as §3
# (§6) Plastic containers containing weeds which are 3 to 5 cm tall and rice seedlings at the 1.5 to 2.5 leaf stage are flooded with water. The water is maintained at 1.5 to 3 cm above the soil surface for the duration of the experiment. Test compounds are applied as aqueous/ acetone mixtures 50/50 v/v directly into the flood water to provide the equivalent of about 0.0313 to 0.500 kg/ha of active ingredient. The treated containers are placed on greenhouse benches and cared for in accordance with conventional greenhouse procedures. Three to four weeks after treatment, the test is terminated and each container is examined and herbicidal effect rated according to the rating system provided in Example 37. The compounds evaluated are reported by compound number given in Example 37.
# CYPIR (Rice Flatsedge) [11] = assay: as above; type: in vivo, Cyperus iria; settings: postemergence weeds, 3-4 weeks after treatment
# Text: as §3, §6
# CYPSE (Flatsedge) [12] = assay: as above; type: in vivo, Cyperus serotinus; settings: postemergence weeds, 3-4 weeks after treatment
# Text: as §3, §6
# MOOVA (Monochoria) [13] = assay: as above; type: in vivo, Monochoria vaginalis; settings: postemergence weeds, 3-4 weeks after treatment
# Text: as §3, §6
# [14] = tested on: SAGPY (Arrowhead (Pygmaea)); assay: as above; type: in vivo, Sagittaria pygmaea; settings: postemergence weeds, 3-4 weeks after treatment
# Text: as §3, §6
compound,measurement,setting,value
"CCOC(=O)CN1C(=O)C(CC(N)=O)S/C1=N/c1cc(-n2c(=O)cc(C(F)(F)F)n(C)c2=O)c(F)cc1Cl (stereo not shown) [Compound 56, Ethyl 5-(carbamoylmethyl)-2-{{2-chloro-5-[3,6-dihydro-3-methyl-2,6-dioxo-4-(trifluoromethyl)-1(2H)-pyrimidinyl]-4-fluorophenyl}imino}-4-oxo-3-thiazolidineacetate]",Postemergence herbicidal rating ABUTH,ABUTH (Velvetleaf); Rate 0.0158 kg/ha,9.0
same,Postemergence herbicidal rating ABUTH,ABUTH (Velvetleaf); Rate 0.0315 kg/ha,9.0
same,Postemergence herbicidal rating ABUTH,ABUTH (Velvetleaf); Rate 0.0630 kg/ha,9.0
same,Postemergence herbicidal rating AMBEL,"AMBEL (Ragweed, Common); Rate 0.0158 kg/ha",9.0
same,Postemergence herbicidal rating AMBEL,"AMBEL (Ragweed, Common); Rate 0.0315 kg/ha",9.0
same,Postemergence herbicidal rating AMBEL,"AMBEL (Ragweed, Common); Rate 0.0630 kg/ha",9.0
same,Postemergence herbicidal rating CASOB,CASOB (Sicklepod); Rate 0.0158 kg/ha,4.0
same,Postemergence herbicidal rating CASOB,CASOB (Sicklepod); Rate 0.0315 kg/ha,4.0
same,Postemergence herbicidal rating CASOB,CASOB (Sicklepod); Rate 0.0630 kg/ha,9.0
same,Postemergence herbicidal rating CHEAL,[1]; Rate 0.0158 kg/ha,9.0
same,Postemergence herbicidal rating CHEAL,[1]; Rate 0.0315 kg/ha,9.0
same,Postemergence herbicidal rating CHEAL,[1]; Rate 0.0630 kg/ha,9.0
same,Postemergence herbicidal rating GALAP,GALAP (Galium); Rate 0.0158 kg/ha,3.0
same,Postemergence herbicidal rating GALAP,GALAP (Galium); Rate 0.0315 kg/ha,6.0
same,Postemergence herbicidal rating GALAP,GALAP (Galium); Rate 0.0630 kg/ha,9.0
same,Postemergence herbicidal rating IPOHE,[2]; Rate 0.0158 kg/ha,9.0
same,Postemergence herbicidal rating IPOHE,[2]; Rate 0.0315 kg/ha,9.0
same,Postemergence herbicidal rating IPOHE,[2]; Rate 0.0630 kg/ha,9.0
same,Postemergence herbicidal rating ECHCG,ECHCG (Barnyardgrass); Rate 0.0158 kg/ha,2.0
same,Postemergence herbicidal rating ECHCG,ECHCG (Barnyardgrass); Rate 0.0315 kg/ha,2.0
same,Postemergence herbicidal rating ECHCG,ECHCG (Barnyardgrass); Rate 0.0630 kg/ha,3.0
same,Postemergence herbicidal rating SETVI,"SETVI (Foxtail, Green); Rate 0.0158 kg/ha",6.0
same,Postemergence herbicidal rating SETVI,"SETVI (Foxtail, Green); Rate 0.0315 kg/ha",6.0
same,Postemergence herbicidal rating SETVI,"SETVI (Foxtail, Green); Rate 0.0630 kg/ha",7.0
same,Postemergence herbicidal rating GLXMAW,[3]; Rate 0.0158 kg/ha,7.0
same,Postemergence herbicidal rating GLXMAW,[3]; Rate 0.0315 kg/ha,7.5
same,Postemergence herbicidal rating GLXMAW,[3]; Rate 0.0630 kg/ha,8.0
same,Postemergence herbicidal rating ORYSAT,"ORYSAT (Rice, Tebonnet); Rate 0.0158 kg/ha",1.5
same,Postemergence herbicidal rating ORYSAT,"ORYSAT (Rice, Tebonnet); Rate 0.0315 kg/ha",2.0
same,Postemergence herbicidal rating ORYSAT,"ORYSAT (Rice, Tebonnet); Rate 0.0630 kg/ha",2.5
same,Postemergence herbicidal rating TRZAWR,[4]; Rate 0.0158 kg/ha,4.0
same,Postemergence herbicidal rating TRZAWR,[4]; Rate 0.0315 kg/ha,4.5
same,Postemergence herbicidal rating TRZAWR,[4]; Rate 0.0630 kg/ha,5.0
same,Postemergence herbicidal rating ZEAMX,"ZEAMX (Corn, Field); Rate 0.0158 kg/ha",5.0
same,Postemergence herbicidal rating ZEAMX,"ZEAMX (Corn, Field); Rate 0.0315 kg/ha",5.5
same,Postemergence herbicidal rating ZEAMX,"ZEAMX (Corn, Field); Rate 0.0630 kg/ha",6.5
same,Herbicidal rating ECHORC,[5]; 0.0313 kg/ha,0.0
same,Herbicidal rating ECHORC,[5]; 0.0625 kg/ha,0.0
same,Herbicidal rating ECHORC,[5]; 0.1250 kg/ha,3.0
same,Herbicidal rating ECHORC,[5]; 0.2500 kg/ha,5.0
same,Herbicidal rating CYPIR,CYPIR (Rice Flatsedge) [6]; 0.0313 kg/ha,0.0
same,Herbicidal rating CYPIR,CYPIR (Rice Flatsedge) [6]; 0.0625 kg/ha,0.0
same,Herbicidal rating CYPIR,CYPIR (Rice Flatsedge) [6]; 0.1250 kg/ha,0.0
same,Herbicidal rating CYPIR,CYPIR (Rice Flatsedge) [6]; 0.2500 kg/ha,0.0
same,Herbicidal rating CYPSE,CYPSE (Flatsedge) [7]; 0.0313 kg/ha,0.0
same,Herbicidal rating CYPSE,CYPSE (Flatsedge) [7]; 0.0625 kg/ha,0.0
same,Herbicidal rating CYPSE,CYPSE (Flatsedge) [7]; 0.1250 kg/ha,0.0
same,Herbicidal rating CYPSE,CYPSE (Flatsedge) [7]; 0.2500 kg/ha,0.0
same,Herbicidal rating MOOVA,MOOVA (Monochoria) [8]; 0.0313 kg/ha,6.0
same,Herbicidal rating MOOVA,MOOVA (Monochoria) [8]; 0.0625 kg/ha,6.0
same,Herbicidal rating MOOVA,MOOVA (Monochoria) [8]; 0.1250 kg/ha,9.0
same,Herbicidal rating MOOVA,MOOVA (Monochoria) [8]; 0.2500 kg/ha,9.0
same,Herbicidal rating SAGPY,[9]; 0.0313 kg/ha,0.0
same,Herbicidal rating SAGPY,[9]; 0.0625 kg/ha,0.0
same,Herbicidal rating SAGPY,[9]; 0.1250 kg/ha,0.0
same,Herbicidal rating SAGPY,[9]; 0.2500 kg/ha,0.0
same,Herbicidal rating ECHORC,[10]; rate 0.0313 kg/ha,0.0
same,Herbicidal rating ECHORC,[10]; rate 0.0625 kg/ha,0.0
same,Herbicidal rating ECHORC,[10]; rate 0.1250 kg/ha,3.0
same,Herbicidal rating ECHORC,[10]; rate 0.2500 kg/ha,5.0
same,Herbicidal rating CYPIR,CYPIR (Rice Flatsedge) [11]; rate 0.0313 kg/ha,0.0
same,Herbicidal rating CYPIR,CYPIR (Rice Flatsedge) [11]; rate 0.0625 kg/ha,0.0
same,Herbicidal rating CYPIR,CYPIR (Rice Flatsedge) [11]; rate 0.1250 kg/ha,0.0
same,Herbicidal rating CYPIR,CYPIR (Rice Flatsedge) [11]; rate 0.2500 kg/ha,0.0
same,Herbicidal rating CYPSE,CYPSE (Flatsedge) [12]; rate 0.0313 kg/ha,0.0
same,Herbicidal rating CYPSE,CYPSE (Flatsedge) [12]; rate 0.0625 kg/ha,0.0
same,Herbicidal rating CYPSE,CYPSE (Flatsedge) [12]; rate 0.1250 kg/ha,0.0
same,Herbicidal rating CYPSE,CYPSE (Flatsedge) [12]; rate 0.2500 kg/ha,0.0
same,Herbicidal rating MOOVA,MOOVA (Monochoria) [13]; rate 0.0313 kg/ha,6.0
same,Herbicidal rating MOOVA,MOOVA (Monochoria) [13]; rate 0.0625 kg/ha,6.0
same,Herbicidal rating MOOVA,MOOVA (Monochoria) [13]; rate 0.1250 kg/ha,9.0
same,Herbicidal rating MOOVA,MOOVA (Monochoria) [13]; rate 0.2500 kg/ha,9.0
same,Herbicidal rating SAGPY,[14]; rate 0.0313 kg/ha,0.0
same,Herbicidal rating SAGPY,[14]; rate 0.0625 kg/ha,0.0
same,Herbicidal rating SAGPY,[14]; rate 0.1250 kg/ha,0.0
same,Herbicidal rating SAGPY,[14]; rate 0.2500 kg/ha,0.0
